This passage reports T/C results from PubChem BioAssay AID200 (DTP/NCI, 2004).

Values joined by “and” are separate entries in the source; they are usually repeats but may differ in a detail not shown here. Equal values may be shown once. Inconclusive results and toxic doses are left out.

The experiment deals with B6C3F1 mice, B16 melanoma ip, median survival T/C. Put plainly: NCI In Vivo Anticancer Drug Screen. Data for tumor model B16 Melanoma (intraperitoneal) in B6C3F1 mice. The conditions noted are these: endpoint: median survival time, higher = longer survival. An outline of the steps:
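Readout: survival or tumor size in treated mice relative to vehicle controls (T/C). Model uses transplantable tumors grown in mice.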

Where [1] appears, read: dose: 0.5 mg/kg/injection, schedule: Q01DX009 (ip), vehicle: saline with Tween-80.
Setting [2] is: dose: 1.0 mg/kg/injection, schedule: Q01DX009 (ip), vehicle: saline with Tween-80.
The mark [3] stands for this setting: dose: 12.5 mg/kg/injection, schedule: Q01DX009 (ip), vehicle: saline.
Setting [4] is: dose: 25.0 mg/kg/injection, schedule: Q01DX009 (ip), vehicle: saline.
Setting [5] is: dose: 50.0 mg/kg/injection, schedule: Q01DX009 (ip), vehicle: saline.
Setting [6] is: dose: 100.0 mg/kg/injection, schedule: Q01DX009 (ip), vehicle: saline.
Setting [7] is: dose: 200.0 mg/kg/injection, schedule: Q01DX009 (ip), vehicle: saline.

Take `CC1=CC2C(O)(CC(CO)=CC3C4C(C)(C)C4(OC(=O)c4ccccc4)C(OC(=O)c4ccccc4)C(C)C32O)C1=O` (stereo not drawn): the T/C reads like this: (dose: 0.13 mg/kg/injection, schedule: Q01DX009 (ip), vehicle: saline with Tween-80) 98 % of control; (dose: 0.25 mg/kg/injection, schedule: Q01DX009 (ip), vehicle: saline with Tween-80) 90 % of control; under setting [1], 93 % of control; under setting [2], 95 % of control; (dose: 2.0 mg/kg/injection, schedule: Q01DX009 (ip), vehicle: saline with Tween-80) 90 % of control.

`Oc1ccc(O)cc1`: the T/C is, setting by setting: (dose: 3.13 mg/kg/injection, schedule: Q01DX009 (ip), vehicle: saline) 101 % of control; (dose: 6.25 mg/kg/injection, schedule: Q01DX009 (ip), vehicle: saline) 88 % of control; under setting [3], 95 % of control; under setting [4], 110 % of control; under setting [5], 98 % of control.

As for `COC(C(=O)C(O)C(C)O)C1Cc2cc3cc(OC4CC(OC(C)=O)C(OC5CC(O)C(OC)C(C)O5)C(C)O4)cc(O)c3c(O)c2C(=O)C1OC1CC(OC2CC(OC3CC(C)(O)C(OC(=O)C(C)C)C(C)O3)C(O)C(C)O2)C(O)C(C)O1` (stereo not drawn), the T/C reads like this: under setting [1], 158 % of control; under setting [2], 170 % of control.

As for `COC(=O)Nc1cn2ccc(Sc3ccccc3)cc2n1`, the T/C was 122 % of control (dose: 50.0 mg/kg/injection, schedule: Q01DX009 (ip), vehicle: Klucel (hydroxypropylcellulose) (HPC)) and 101 % of control (dose: 100.0 mg/kg/injection, schedule: Q01DX009 (ip), vehicle: Klucel (hydroxypropylcellulose) (HPC)).

As for `[Cl][Pt+2][Cl].[NH-]c1ccc([N+](=O)[O-])cc1[NH-]`, the T/C is 107 % of control (dose: 10.0 mg/kg/injection, schedule: Q01DX009 (ip), vehicle: saline with Tween-80); 105 % of control (dose: 20.0 mg/kg/injection, schedule: Q01DX009 (ip), vehicle: saline with Tween-80); 118 % of control (dose: 40.0 mg/kg/injection, schedule: Q01DX009 (ip), vehicle: saline with Tween-80); 116 % of control (dose: 80.0 mg/kg/injection, schedule: Q01DX009 (ip), vehicle: saline with Tween-80).

`COC1C(N)C(OC2C(Oc3cccc4c(O)c5c(=O)oc6ccc(C)c7c(=O)oc(c34)c5c67)OC(C)C(O)C2(C)O)OC(C)C1O` (stereo not drawn): the T/C (dose: 1.09 mg/kg/injection, schedule: Q01DX009 (ip), vehicle: DMSO) is 226 % of control; the T/C (dose: 1.25 mg/kg/injection, schedule: Q01DX009 (ip), vehicle: other) was 179 % of control; the T/C (dose: 1.81 mg/kg/injection, schedule: Q01DX009 (ip), vehicle: DMSO) was 255 % of control; the T/C (dose: 2.5 mg/kg/injection, schedule: Q01DX009 (ip), vehicle: other) was 227 % of control; the T/C (dose: 3.0 mg/kg/injection, schedule: Q01DX009 (ip), vehicle: DMSO) is 244 % of control; the T/C (dose: 5.0 mg/kg/injection, schedule: Q01DX009 (ip), vehicle: DMSO) was 326 % of control. Besides, the T/C by setting is: (dose: 5.0 mg/kg/injection, schedule: Q01DX009 (ip), vehicle: other) 227 % of control; (dose: 8.4 mg/kg/injection, schedule: Q01DX009 (ip), vehicle: DMSO) 190 % of control; (dose: 10.0 mg/kg/injection, schedule: Q01DX009 (ip), vehicle: other) 179 % of control.

As to `CC(=O)OCC1OC(n2ccc(N)nc2=O)C(OC(C)=O)C1OC(C)=O` (stereo not drawn), the T/C is, setting by setting: under setting [3], 106 % of control; under setting [4], 104 % of control; under setting [5], 109 % of control; under setting [6], 108 % of control; under setting [7], 120 % of control.

With `O=C(C/C(=N\C(=S)Nc1cc(C(F)(F)F)ccc1Cl)NO)N1CCCC1`, the T/C is, setting by setting: (dose: 25.0 mg/kg/injection, schedule: Q01DX009 (ip), vehicle: saline with Tween-80) 123 % of control; (dose: 50.0 mg/kg/injection, schedule: Q01DX009 (ip), vehicle: saline with Tween-80) 116 % of control; (dose: 100.0 mg/kg/injection, schedule: Q01DX009 (ip), vehicle: saline with Tween-80) 94 % of control.

For the molecule `CC(=O)O[C@H]1C(=O)[C@@]2(C)C(C(OC(=O)c3ccccc3)[C@]3(O)CC(OC(=O)[C@H](OC(=O)CCC(=O)O)C(NC(=O)c4ccccc4)c4ccccc4)C(C)=C1C3(C)C)C1(OC(C)=O)COC1C[C@@H]2O` (stereo partly drawn), the T/C was 111 % of control (dose: 1.25 mg/kg/injection, schedule: Q01DX009 (ip), vehicle: water); 119 % of control (dose: 2.5 mg/kg/injection, schedule: Q01DX009 (ip), vehicle: sodium bicarbonate); 159 % of control (dose: 2.5 mg/kg/injection, schedule: Q01DX009 (ip), vehicle: water); 154 % of control (dose: 5.0 mg/kg/injection, schedule: Q01DX009 (ip), vehicle: sodium bicarbonate); 166 % of control (dose: 5.0 mg/kg/injection, schedule: Q01DX009 (ip), vehicle: water); 159 % of control (dose: 10.0 mg/kg/injection, schedule: Q01DX009 (ip), vehicle: sodium bicarbonate). The T/C (dose: 10.0 mg/kg/injection, schedule: Q01DX009 (ip), vehicle: water) is 160 % of control and 183 % of control; the T/C (dose: 20.0 mg/kg/injection, schedule: Q01DX009 (ip), vehicle: sodium bicarbonate) was 154 % of control; the T/C (dose: 20.0 mg/kg/injection, schedule: Q01DX009 (ip), vehicle: water) is 160 % of control and 201 % of control; the T/C (dose: 40.0 mg/kg/injection, schedule: Q01DX009 (ip), vehicle: sodium bicarbonate) was 185 % of control; the T/C (dose: 40.0 mg/kg/injection, schedule: Q01DX009 (ip), vehicle: water) is 177 % of control and 218 % of control.

With `Cc1cn(C2CC(O)C(CO)O2)c(=O)[nH]c1=O` (stereo not drawn), the T/C was 99 % of control under setting [3]; 98 % of control under setting [4]; 102 % of control under setting [5]; 98 % of control under setting [6]; 98 % of control under setting [7]; 115 % of control (dose: 400.0 mg/kg/injection, schedule: Q01DX009 (ip), vehicle: saline).

As to `CC(C)CCCCCCCCCCCCC(=O)NCC(=O)NC1C(C)OC(Nc2ncnc3nc[nH]c23)C(O)C1O` (stereo not drawn), the T/C by setting is: (dose: 0.25 mg/kg/injection, schedule: Q01DX008 (ip), vehicle: distilled water + Tween-80) 95 % of control; (dose: 0.25 mg/kg/injection, schedule: Q01DX009 (ip), vehicle: distilled water + Tween-80) 112 % of control; (dose: 0.5 mg/kg/injection, schedule: Q01DX008 (ip), vehicle: distilled water + Tween-80) 95 % of control; (dose: 0.5 mg/kg/injection, schedule: Q01DX009 (ip), vehicle: distilled water + Tween-80) 112 % of control; (dose: 1.0 mg/kg/injection, schedule: Q01DX008 (ip), vehicle: distilled water + Tween-80) 98 % of control; (dose: 2.0 mg/kg/injection, schedule: Q01DX008 (ip), vehicle: distilled water + Tween-80) 111 % of control.
